Source: ChEMBL document CHEMBL1909294, “Translating clinical findings into knowledge in drug safety evaluation--drug induced liver injury prediction system (DILIps)” (PLoS Comput Biol, 2011)
*1 amine or outer side, *2 acyl side, *3 side chain or, on linkers, in order; H or OH if unused. Where a SMILES comes first, the peptide text is derived from it. Bridges are numbered along the chain shown (N, C = ends). [ ]: non-standard residue; d: D form. The star is where a group is joined. hTyr(3S-OH,4S-OH,3'-OSO3H) = N[C@H](C(=O)O)[C@H](O)[C@@H](O)c1ccc(O)c(OS(=O)(=O)O)c1; Orn(4R-OH,5R-OH) = O=C([C@H](C[C@@H](O)[C@@H](O)N[*:3])N[*:1])[*:2]; Pro(3S-OH,4S-Me) = C[C@H]1CN[C@H](C(=O)O)[C@H]1O; X1 = CCCCCOc1ccc(-c2cc(-c3ccc(C(=O)*)cc3)no2)cc1; Gln(3R-OH) = NC(=O)C[C@@H](O)[C@H](N)C(=O)O; Hyp = O=C(O)[C@@H]1C[C@@H](O)CN1

Legend:
[1] = test system: Hepatotoxicity;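 as to HepSE cholecystitis: Cholecystitis-related hepatic side effect score drawn from the DILIps (drug-induced liver injury prediction) training data set; call rule not given here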;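 as to HepSE cholelithiasis: hepatic side effect score for cholelithiasis, drawn from the DILIps training data for predicting drug-induced liver injury; call rule not given here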;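 as to HepSE elevated liver function tests: hepatic side effect score for raised liver function tests, as recorded in the DILIps training set used for predicting drug-induced liver injury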;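 as to HepSE hepatitis: Hepatitis-related hepatic side effect score taken from the training data of DILIps, a prediction system for drug-induced liver injury; call rule not given here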;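 as to HepSE hepatomegaly: hepatic side effect score for hepatomegaly, taken from the training set of the DILIps drug-induced liver injury prediction system; call rule not given here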;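 as to HepSE liver function tests abnormal: hepatic side effect score taken from the DILIps (drug-induced liver injury prediction system) training data, here covering abnormal liver function test findings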
[2] = test system: Hepatotoxicity; remark: listed apart in the source;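 as to HepSE cholecystitis: Cholecystitis-related hepatic side effect score drawn from the DILIps (drug-induced liver injury prediction) training data set; call rule not given here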;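 as to HepSE cholelithiasis: hepatic side effect score for cholelithiasis, drawn from the DILIps training data for predicting drug-induced liver injury; call rule not given here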;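 as to HepSE elevated liver function tests: hepatic side effect score for raised liver function tests, as recorded in the DILIps training set used for predicting drug-induced liver injury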;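 as to HepSE hepatitis: Hepatitis-related hepatic side effect score taken from the training data of DILIps, a prediction system for drug-induced liver injury; call rule not given here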;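 as to HepSE hepatomegaly: hepatic side effect score for hepatomegaly, taken from the training set of the DILIps drug-induced liver injury prediction system; call rule not given here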;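 as to HepSE liver function tests abnormal: hepatic side effect score taken from the DILIps (drug-induced liver injury prediction system) training data, here covering abnormal liver function test findings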
[3] = test system: Hepatotoxicity; remark: listed apart in the source;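 as to HepSE cholelithiasis: hepatic side effect score for cholelithiasis, drawn from the DILIps training data for predicting drug-induced liver injury; call rule not given here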;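 as to HepSE elevated liver function tests: hepatic side effect score for raised liver function tests, as recorded in the DILIps training set used for predicting drug-induced liver injury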;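 as to HepSE hepatitis: Hepatitis-related hepatic side effect score taken from the training data of DILIps, a prediction system for drug-induced liver injury; call rule not given here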;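 as to HepSE hepatomegaly: hepatic side effect score for hepatomegaly, taken from the training set of the DILIps drug-induced liver injury prediction system; call rule not given here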;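 as to HepSE liver function tests abnormal: hepatic side effect score taken from the DILIps (drug-induced liver injury prediction system) training data, here covering abnormal liver function test findings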
[4] = test system: Hepatotoxicity; remark: listed apart in the source;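 as to HepSE cholelithiasis: hepatic side effect score for cholelithiasis, drawn from the DILIps training data for predicting drug-induced liver injury; call rule not given here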;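 as to HepSE elevated liver function tests: hepatic side effect score for raised liver function tests, as recorded in the DILIps training set used for predicting drug-induced liver injury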;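 as to HepSE hepatitis: Hepatitis-related hepatic side effect score taken from the training data of DILIps, a prediction system for drug-induced liver injury; call rule not given here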;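 as to HepSE hepatomegaly: hepatic side effect score for hepatomegaly, taken from the training set of the DILIps drug-induced liver injury prediction system; call rule not given here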;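 as to HepSE liver function tests abnormal: hepatic side effect score taken from the DILIps (drug-induced liver injury prediction system) training data, here covering abnormal liver function test findings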
[5] = test system: Hepatotoxicity; remark: listed apart in the source
[6] = test system: Hepatotoxicity; remark: listed apart in the source
[7] = test system: Hepatotoxicity; remark: listed apart in the source
[8] = test system: Hepatotoxicity; remark: listed apart in the source
[9] = test system: Hepatotoxicity; remark: listed apart in the source
[10] = test system: Hepatotoxicity; remark: listed apart in the source
[11] = test system: Hepatotoxicity; remark: listed apart in the source
[12] = test system: Hepatotoxicity; remark: listed apart in the source
[13] = test system: Hepatotoxicity; remark: listed apart in the source
[14] = test system: Hepatotoxicity; remark: listed apart in the source

SMILES	HepSE_hepatitis [1]	HepSE_elevated liver function tests [2]	HepSE_hepatomegaly [3]	HepSE_cholelithiasis [4]	HepSE_liver function tests abnormal [5]	HepSE_hepatic necrosis [6]	HepSE_cholecystitis [7]	HepSE_hepatic failure [8]	HepSE_cirrhosis [9]	HepSE_bilirubinemia [10]	HepSE_liver fatty [11]	HepSE_jaundice [12]	HepSE_liver disease [13]	HepSE_Combined Scores [14]
CCCCCOc1ccc(-c2cc(-c3ccc(C(=O)N[C@H]4C[C@@H](O)[C@@H](O)NC(=O)[C@@H]5[C@@H](O)[C@@H](C)CN5C(=O)[C@H]([C@H](O)CC(N)=O)NC(=O)[C@H]([C@H](O)[C@@H](O)c5ccc(O)c(OS(=O)(=O)O)c5)NC(=O)[C@@H]5C[C@@H](O)CN5C(=O)[C@H]([C@@H](C)O)NC4=O)cc3)no2)cc1 [MICAFUNGIN] (X1-[Orn(4R-OH,5R-OH)]T[Hyp][hTyr(3S-OH,4S-OH,3'-OSO3H)][Gln(3R-OH)][Pro(3S-OH,4S-Me)]; lactam 1-C)	0	0	1	0	1	0	0	1	0	1	0	1	1	6
Clc1ccc(COC(Cn2ccnc2)c2ccc(Cl)cc2Cl)c(Cl)c1 (stereo not drawn) [MICONAZOLE]	0	0	0	0	0	0	0	0	0	0	0	0	0	0
Cc1ncc2n1-c1ccc(Cl)cc1C(c1ccccc1F)=NC2 [MIDAZOLAM]	0	0	0	0	0	0	0	0	0	0	0	0	0	0
COc1ccc(OC)c(C(O)CNC(=O)CN)c1 (stereo not drawn) [MIDODRINE]	0	0	0	0	0	0	0	0	0	0	0	0	0	0
CC#C[C@]1(O)CC[C@H]2[C@@H]3CCC4=CC(=O)CCC4=C3[C@@H](c3ccc(N(C)C)cc3)C[C@@]21C [MIFEPRISTONE]	0	0	0	0	0	0	0	0	0	0	0	0	0	0
OCCN1C[C@H](O)[C@@H](O)[C@H](O)[C@H]1CO [MIGLITOL]	0	0	0	0	0	0	0	0	0	0	0	0	0	0
Cc1[nH]c(=O)c(C#N)cc1-c1ccncc1 [MILRINONE]	0	0	0	0	0	0	0	0	0	0	0	0	0	0
CN(C)c1ccc(O)c2c1C[C@H]1C[C@H]3[C@H](N(C)C)C(O)=C(C(N)=O)C(=O)[C@@]3(O)C(O)=C1C2=O [MINOCYCLINE]	1	0	0	0	0	0	0	1	0	1	0	1	0	4
Nc1cc(N2CCCCC2)nc(N)[n+]1[O-] [MINOXIDIL]	0	0	0	0	0	0	0	0	0	0	0	0	0	0
CN1CCN2c3ncccc3Cc3ccccc3C2C1 (stereo not drawn) [MIRTAZAPINE]	0	0	0	0	1	0	1	0	1	0	0	0	0	3
CCCCC(C)(O)C/C=C/[C@H]1[C@H](O)CC(=O)[C@@H]1CCCCCCC(=O)OC (stereo partly drawn) [MISOPROSTOL]	0	0	0	0	0	0	0	0	0	0	0	0	0	0
Clc1ccc(C(c2ccccc2Cl)C(Cl)Cl)cc1 (stereo not drawn) [MITOTANE]	0	0	0	0	0	0	0	0	0	0	0	0	0	0
O=C1c2c(O)ccc(O)c2C(=O)c2c(NCCNCCO)ccc(NCCNCCO)c21 [MITOXANTRONE]	1	0	0	0	0	0	0	0	0	0	0	1	0	2
NC(=O)C[S+]([O-])C(c1ccccc1)c1ccccc1 (stereo not drawn) [MODAFINIL]	0	0	0	0	0	0	0	0	0	0	0	0	0	0
CCOC(=O)[C@H](CCc1ccccc1)N[C@@H](C)C(=O)N1Cc2cc(OC)c(OC)cc2C[C@H]1C(=O)O [MOEXIPRIL]	1	0	0	0	0	0	0	0	0	0	0	0	0	1
CCc1c(C)[nH]c2c1C(=O)C(CN1CCOCC1)CC2 (stereo not drawn) [MOLINDONE]	0	0	0	0	0	0	0	0	0	0	0	0	0	0
C[C@@H]1C[C@H]2[C@@H]3CCC4=CC(=O)C=C[C@]4(C)[C@@]3(Cl)[C@@H](O)C[C@]2(C)[C@@]1(O)C(=O)CCl [MOMETASONE]	0	0	0	0	0	0	0	0	0	0	0	0	0	0
